Laboratory results reported in patent publication US4160839A, “Carbamyltriazole insecticides” (priority 1976, dated 1979).

Columns and labels:
[1] = system: Mexican bean beetle (MBB) larvae; assay: Spray test, Mexican bean beetle (MBB) larvae on bean leaves; assay type: in vivo; settings: approx. 48 h after spraying
Experimental: (§1) Three 5 oz paper cups containing Henderson dwarf lima bean plants and one 5 oz paper cup containing Orange Gem nasturtiums, all growing in vermiculite, are placed on a turntable and sprayed to thorough wetness with 25 ml of a solution of the candidate chemical at the appropriate concentration. Nasturtiums were already infested with 50-100 bean aphids (BA). A bean plant in one paper cup was already infested with 50-100 two-spotted mites (TSM). Leaves from the two remaining bean plants are removed following spraying and placed in disposable petri dishes with 5 southern armyworm (SA) larvae in one petri dish, and 5 Mexican bean beetle (MBB) larvae in the other petri dish. The rating is done approximately 48 hours after spraying as follows:
(§2) So as to obtain more meaningful results, all tests are performed at the same time of day, whenever possible, usually in the forenoon. Temperature,illumination and humidity are the same in all tests. Atmospheric pressure is not controlled.
(§3) Results obtained with the novel insecticides of this invention at various concentrations of active chemical are tabulated below. The ratings given are for averages of three or more replicates. The oral lethal dose for 50 percent kill of laboratory rats is also recorded in the table. In conducting the toxicity tests on rats, 0.01 g of active chemical per ml in corn oil is employed as an additive to the diet of the animals.

[2] = system: two-spotted mites (TSM); assay: Spray test, two-spotted mites (TSM) on bean plants; assay type: in vivo; settings: approx. 48 h after spraying
Experimental: as §1, §2, §3

[3] = system: Southern Corn Rootworm (SCR); assay: Southern Corn Rootworm (SCR) soil treatment test, root feeding damage on corn; assay type: in vivo; parameters: scale not given here; settings: nine days after treatment
Experimental: Three 5 oz paper cups planted each with one kernel of DeKalb XL-361 corn are treated two days after planting with 10 ml of a 125 ppm solution of the candidate compound. Compounds with high efficacy are treated at lower concentrations. The experiment is a 4×5 factorial in a randomized complete block design with three replications. The tests are evaluated nine days after treatment. The roots are inspected under a dissecting microscope and rated as follows:
as §2, §3

[4] = system: bean aphids (BA); assay: Spray test, bean aphids (BA) on nasturtiums; assay type: in vivo; settings: approx. 48 h after spraying
Experimental: as §1, §2, §3

[5] = system: southern armyworm (SA) larvae; assay: Spray test, southern armyworm (SA) larvae on bean leaves; assay type: in vivo; settings: approx. 48 h after spraying
Experimental: as §1, §2, §3

[6] = Oral toxicity test on laboratory rats; settings: rat, in vivo, in corn oil as additive to the diet, read-out: LD50 (oral lethal dose for 50 percent kill of laboratory rats)
Experimental: as §3

SMILES	MBB rating (larvae dead) ([1]; 500 ppm)	TSM rating (dead adults) ([2]; 500 ppm)	BA rating (dead) ([4]; 2 ppm)	BA rating (dead) ([4]; 4 ppm)	BA rating (dead) ([4]; 8 ppm)	BA rating (dead) ([4]; 15 ppm)	BA rating (dead) ([4]; 31 ppm)	BA rating (dead) ([4]; 62 ppm)	BA rating (dead) ([4]; 125 ppm)	BA rating (dead) ([4]; 250 ppm)	BA rating (dead) ([4]; 500 ppm)	SA rating (larvae dead) ([5]; 500 ppm)	MBB rating (larvae dead) ([1]; 15 ppm)	MBB rating (larvae dead) ([1]; 31 ppm)	MBB rating (larvae dead) ([1]; 62 ppm)	MBB rating (larvae dead) ([1]; 125 ppm)	MBB rating (larvae dead) ([1]; 250 ppm)	LD50 [6] [mg/kg]	SCR Rating (root feeding damage) ([3]; 25 ppm)	SA rating (larvae dead) ([5]; 15 ppm)	further results
C=C(C)CSc1nc(C(C)(C)C)nn1C(=O)N(C)C [R=2-methylallyl, R'=tert.butyl]	2 (26-50% larvae dead)	0 (no dead adults)	1 (1-25% dead)	4 (76-99% dead)	4 (76-99% dead)	5 (100% dead)	5 (100% dead)	5 (100% dead)	5 (100% dead)	5 (100% dead)	5 (100% dead)	0 (no larvae dead)	–	–	–	–	–	–	–	–	SCR Rating (root feeding damage) ([3]; 100 ppm): 1.3
C=CCSc1nc(C2CC2)nn1C(=O)N(C)C [R=2-propenyl (allyl), R'=cyclopropyl]	5 (100% larvae dead)	5 (100% dead adults)	4 (76-99% dead)	5 (100% dead)	5 (100% dead)	5 (100% dead)	5 (100% dead)	5 (100% dead)	5 (100% dead)	5 (100% dead)	5 (100% dead)	5 (100% larvae dead)	0 (no larvae dead)	0 (no larvae dead)	0 (no larvae dead)	2 (26-50% larvae dead)	5 (100% larvae dead)	5 to 10	3.0	0 (no larvae dead)	TSM rating (dead adults) ([2]; 15 ppm): 0 (no dead adults); TSM rating (dead adults) ([2]; 31 ppm): 0 (no dead adults); TSM rating (dead adults) ([2]; 62 ppm): 3 (51-75% dead adults); TSM rating (dead adults) ([2]; 125 ppm): 5 (100% dead adults); TSM rating (dead adults) ([2]; 250 ppm): 5 (100% dead adults); SCR Rating (root feeding damage) ([3]; 3 ppm): 3.0; SCR Rating (root feeding damage) ([3]; 6 ppm): 2.5; SCR Rating (root feeding damage) ([3]; 12 ppm): 2.5; SCR Rating (root feeding damage) ([3]; 50 ppm): 3.5; SA rating (larvae dead) ([5]; 31 ppm): 0 (no larvae dead); SA rating (larvae dead) ([5]; 62 ppm): 0 (no larvae dead); SA rating (larvae dead) ([5]; 125 ppm): 0 (no larvae dead); SA rating (larvae dead) ([5]; 250 ppm): 0 (no larvae dead)
C=CCSc1nc(C(C)C)nn1C(=O)N(C)C [R=2-propenyl (allyl), R'=isopropyl]	5 (100% larvae dead)	0 (no dead adults)	0 (none dead)	2 (26-50% dead)	4 (76-99% dead)	5 (100% dead)	5 (100% dead)	5 (100% dead)	5 (100% dead)	5 (100% dead)	5 (100% dead)	5 (100% larvae dead)	0 (no larvae dead)	0 (no larvae dead)	2 (26-50% larvae dead)	5 (100% larvae dead)	5 (100% larvae dead)	10 to 50	–	0 (no larvae dead)	SCR Rating (root feeding damage) ([3]; 3 ppm): 3.5; SA rating (larvae dead) ([5]; 31 ppm): 0 (no larvae dead); SA rating (larvae dead) ([5]; 62 ppm): 0 (no larvae dead); SA rating (larvae dead) ([5]; 125 ppm): 0 (no larvae dead); SA rating (larvae dead) ([5]; 250 ppm): 0 (no larvae dead)
C=CCSc1nc(C(C)(C)C)nn1C(=O)N(C)C [R=2-propenyl (allyl), R'=tert.butyl, 1-Dimethylcarbamyl-3-tert.butyl-5-allylthio-1H-1,2,4-triazole]	5 (100% larvae dead)	0 (no dead adults)	2 (26-50% dead)	3 (51-75% dead)	4 (76-99% dead)	5 (100% dead)	5 (100% dead)	5 (100% dead)	5 (100% dead)	5 (100% dead)	5 (100% dead)	1 (1-25% larvae dead)	0 (no larvae dead)	0 (no larvae dead)	1 (1 -25% larvae dead)	5 (100% larvae dead)	5 (100% larvae dead)	17	2.5	–	–
C#CCSc1nc(C2CC2)nn1C(=O)N(C)C [R=2-propynyl (propargyl), R'=cyclopropyl]	5 (100% larvae dead)	5 (100% dead adults)	1 (1-25% dead)	3 (51-75% dead)	5 (100% dead)	5 (100% dead)	5 (100% dead)	5 (100% dead)	5 (100% dead)	5 (100% dead)	5 (100% dead)	5 (100% larvae dead)	1 (1 -25% larvae dead)	1 (1 -25% larvae dead)	3 (51-75% larvae dead)	5 (100% larvae dead)	5 (100% larvae dead)	10	1.3	0 (no larvae dead)	TSM rating (dead adults) ([2]; 15 ppm): 0 (no dead adults); TSM rating (dead adults) ([2]; 31 ppm): 0 (no dead adults); TSM rating (dead adults) ([2]; 62 ppm): 2 (26-50% dead adults); TSM rating (dead adults) ([2]; 125 ppm): 4 (76-99% dead adults); TSM rating (dead adults) ([2]; 250 ppm): 4 (76-99% dead adults); SCR Rating (root feeding damage) ([3]; 50 ppm): 4.3; SCR Rating (root feeding damage) ([3]; 100 ppm): 4.3; SA rating (larvae dead) ([5]; 31 ppm): 0 (no larvae dead); SA rating (larvae dead) ([5]; 62 ppm): 0 (no larvae dead); SA rating (larvae dead) ([5]; 125 ppm): 2 (26-50% larvae dead); SA rating (larvae dead) ([5]; 250 ppm): 4 (76-99% larvae dead)
C#CCSc1nc(C(C)C)nn1C(=O)N(C)C [R=2-propynyl, R'=isopropyl]	5 (100% larvae dead)	0 (no dead adults)	0 (none dead)	3 (51-75% dead)	–	5 (100% dead)	5 (100% dead)	–	5 (100% dead)	5 (100% dead)	5 (100% dead)	5 (100% larvae dead)	0 (no larvae dead)	4 (76-99% larvae dead)	5 (100% larvae dead)	5 (100% larvae dead)	5 (100% larvae dead)	~50	1.3	0 (no larvae dead)	SCR Rating (root feeding damage) ([3]; 12 ppm): 0.3; SCR Rating (root feeding damage) ([3]; 50 ppm): 2.7; SA rating (larvae dead) ([5]; 31 ppm): 0 (no larvae dead); SA rating (larvae dead) ([5]; 62 ppm): 0 (no larvae dead); SA rating (larvae dead) ([5]; 125 ppm): 3 (51-75% larvae dead); SA rating (larvae dead) ([5]; 250 ppm): 5 (100% larvae dead)
C#CCSc1nc(CCC)nn1C(=O)N(C)C [R=2-propynyl, R'=propyl]	5 (100% larvae dead)	0 (no dead adults)	0 (none dead)	0 (none dead)	1 (1-25% dead)	5 (100% dead)	5 (100% dead)	5 (100% dead)	5 (100% dead)	5 (100% dead)	5 (100% dead)	5 (100% larvae dead)	0 (no larvae dead)	1 (1 -25% larvae dead)	3 (51-75% larvae dead)	5 (100% larvae dead)	5 (100% larvae dead)	–	1.3	0 (no larvae dead)	SCR Rating (root feeding damage) ([3]; 50 ppm): 2.7; SCR Rating (root feeding damage) ([3]; 100 ppm): 3.7; SA rating (larvae dead) ([5]; 31 ppm): 0 (no larvae dead); SA rating (larvae dead) ([5]; 62 ppm): 0 (no larvae dead); SA rating (larvae dead) ([5]; 125 ppm): 0 (no larvae dead); SA rating (larvae dead) ([5]; 250 ppm): 0 (no larvae dead)
